Numbers after ± are expanded uncertainties.
Columns and labels:
[1] = xn = mol fraction of the nth substance listed; conditions: 96 kPa, Liquid, Cone and plate viscometry, x2 = 0
[2] = 96 kPa, Liquid; for viscosity: Cone and plate viscometry; for electrical conductivity: Frequency=0.001 MHz, Alternating current cell with electrodes

OCC(O)CO [glycerol] + C1CCC2=NCCCN2CC1
viscosity ([1]; 288.1 K): 2180 ± 380 mPa·s
viscosity ([1]; 298.1 K): 933.8 ± 110 mPa·s
viscosity ([1]; 308.1 K): 420.3 ± 39 mPa·s
viscosity ([1]; 318.1 K): 195.6 ± 15 mPa·s
viscosity ([1]; 328.1 K): 104.3 ± 7.3 mPa·s

OCC(O)CO [glycerol]
viscosity ([2]; 288.1 K): 2180 ± 380 mPa·s
viscosity ([2]; 298.1 K): 933.8 ± 110 mPa·s
viscosity ([2]; 308.1 K): 420.3 ± 39 mPa·s
viscosity ([2]; 318.1 K): 195.6 ± 15 mPa·s
viscosity ([2]; 328.1 K): 104.3 ± 7.3 mPa·s

C1CCC2=NCCCN2CC1 [1,8-diaza-7-bicyclo[5.4.0]undecene]
viscosity ([2]; 288.1 K): 15.35 ± 1 mPa·s
electrical conductivity ([2]; 288.1 K): 0.000222 ± 8.8e-06 S/m
electrical conductivity ([2]; 293.1 K): 0.000241 ± 9.5e-06 S/m
viscosity ([2]; 298.1 K): 10.32 ± 0.67 mPa·s
electrical conductivity ([2]; 298.1 K): 0.000267 ± 1.1e-05 S/m
electrical conductivity ([2]; 303.1 K): 0.000297 ± 1.2e-05 S/m
viscosity ([2]; 308.1 K): 8.17 ± 0.53 mPa·s
electrical conductivity ([2]; 308.1 K): 0.00032 ± 1.3e-05 S/m
electrical conductivity ([2]; 313.1 K): 0.000356 ± 1.4e-05 S/m
viscosity ([2]; 318.1 K): 6.08 ± 0.39 mPa·s
electrical conductivity ([2]; 318.1 K): 0.000382 ± 1.5e-05 S/m
electrical conductivity ([2]; 323.1 K): 0.000423 ± 1.7e-05 S/m
viscosity ([2]; 328.1 K): 4.91 ± 0.32 mPa·s
electrical conductivity ([2]; 328.1 K): 0.000444 ± 1.8e-05 S/m

— the NIST ThermoML archive (doi:10.1016/j.jct.2019.04.017)
